According to patent US10092648B2, “Selective glucagon-like-peptide-2 (GLP-2) analogues” (Zealand Pharma A/S, priority 2006, dated 2018):
Where “and” joins values, the source holds several entries; their conditions need not be identical. Identical values can stand only once.

Assays:
[1] = test system: male C57BL mice; test: In vivo stimulation of stomach growth, 200 nmol/kg (Example 12)
Procedure: The effects of the test compounds according to the invention were determined based on the ability of the peptides to selectively increase stomach mass, relative to vehicle control. The ability of the present compounds (ZP2395, ZP2396, ZP2400, ZP2412, ZP2394 and ZP2401) to selectively stimulate stomach mass, relative to colon mass was determined in male C57BL mice. Individual groups (n=6-10) of mice were given 200 nmol/kg of each compound, s.c, once daily for three consecutive days. For comparison purposes other groups of animals were given either an equimolar dose of [[…]]GLP-2 or vehicle (phosphate buffered saline, pH 7.4) in the same dosing regimen. Twenty-four hours after the last dose of compound had been given the mice were sacrificed and the stomach and small intestine (from the pylorus to the ileocaecal junction) emptied and weighed. To correct for slight difference in body weight (BW), the organ mass of the stomach is presented relative to BW. […] To evaluate the differential growth pattern induced by ZP compounds, compared to [[…]]GLP-2, on the stomach, the stomach-colon sensitivity index of compound X was calculated as: (Stomach/Colon)x/Stomach/(Colon)[[…]]GLP-2% Compounds with a stomach/colon sensitivity greater than or equal to 1.05 were considered relatively selective for the stomach.

[2] = test system: male C57BL mice; test: In vivo stimulation of intestinal growth, 200 nmol/kg (Example 11); conditions: for Sensitivity index Si/Colon: relative to 1559
Procedure: The ability of further compounds to selectively stimulate small intestinal mass, relative to colon mass was determined in male C57BL mice. A similar protocol was used to that described above in Example 10 except that 200 nmol/kg of each compound was administered per day. Thus, individual groups (n=6-10) of mice were given 200 nmol/kg of each compound, s.c, once daily for three consecutive days. Other groups of animals were given either an equimolar dose of [[…]]GLP-2 (reference compound) or vehicle (phosphate buffered saline, pH 7.4; negative controls) in the same dosing regimen. Twenty-four hours after the last dose of compound the mice were sacrificed and the stomach, small intestine and the colon emptied and weighed.

[3] = 200 nmol/kg s.c. once daily for 3 days
[4] = 200 nmol/kg s.c. once daily for 3 days, relative to 1559
[5] = colon weight relative to body weight, relative to ZP1559
[6] = small intestine weight relative to body weight, relative to ZP1559

H-HGEGSFSDELATILESLAAADFISWLIATKITDKKKKKK-NH2 [ZP2413]
Sto-BW, compared to 1559 in % [1, 3]: 108% | Sensitivity index Stomach/Co [1, 4]: 0.92 | Colon-BW, compared to 1559 in % [2, 3]: 117% | Organ selectivity (FIG. 8, unselective compounds) [2, 3]: unselective for the small intestine, colon or stomach | SI-BW, compared to 1559 in % [2, 3]: 116% | Sensitivity index Si/Colon [2, 3]: 0.99

H-HGEGSFSDELATILESLAAADFIAWLIATKITDKKKKKK-NH2 [ZP2415]
Sto-BW, compared to 1559 in % [1, 3]: 100% | Sensitivity index Stomach/Co [1, 4]: 0.94 | Colon-BW, compared to 1559 in % [2, 3]: 106% | Organ selectivity (FIG. 8, unselective compounds) [2, 3]: unselective for the small intestine, colon or stomach | SI-BW, compared to 1559 in % [2, 3]: 106% | Sensitivity index Si/Colon [2, 3]: 1.00

H-HGEGSFSDELFTILEFLAASDFISWLISTKITDKKKKKK-NH2 [ZP2396]
Preferential stimulation of epithelial growth in the stomach (summary) [1, 3]: preferentially stimulating epithelial growth in the stomach | Selectivity for stomach mass relative to colon mass (FIG. 7) [1, 3]: selectively increase stomach mass, relative to colon mass | Sto-BW, compared to 1559 in % [1, 3]: 117% | Sensitivity index Stomach/Co [1, 4]: 1.15 | Sensitivity index Stomach/Co ([1]; ratio Stomach-BW / Colon-BW): 1.16 and 1.15 | Colon-BW, compared to 1559 in % [2, 3]: 102% | SI-BW, compared to 1559 in % [2, 3]: 104% | Sensitivity index Si/Colon [2, 3]: 1.02 | Colon-BW, compared to 1559 in % [2, 5]: 102% | SI-BW, compared to 1559 in % [2, 6]: 104%

H-HGEGSFSDELSTILEALAASDFISWLISTKITD-NH2 [ZP2398]
Sto-BW, compared to 1559 in % [1, 3]: 102% | Sensitivity index Stomach/Co [1, 4]: 1.05 | Sensitivity index Stomach/Co ([1]; ratio Stomach-BW / Colon-BW): 1.05 | Colon-BW, compared to 1559 in % [2, 3]: 97% | Preferential stimulation of epithelial growth in the small intestine (summary) [2, 3]: preferentially stimulating epithelial growth in the small intestine | SI-BW, compared to 1559 in % [2, 3]: 108% | Selectivity for small intestinal mass relative to colon mass (FIG. 6) [2, 3]: selectively increase small intestinal mass, relative to colon mass | Sensitivity index Si/Colon [2, 3]: 1.11 | Colon-BW, compared to 1559 in % [2, 5]: 97% | SI-BW, compared to 1559 in % [2, 6]: 108%

H-HGEGSFSDELLTILELLAAADFIAWLIATKITDKKKKKK-NH2 [ZP2412]
Preferential stimulation of epithelial growth in the stomach (summary) [1, 3]: preferentially stimulating epithelial growth in the stomach | Selectivity for stomach mass relative to colon mass (FIG. 7) [1, 3]: selectively increase stomach mass, relative to colon mass | Sto-BW, compared to 1559 in % [1, 3]: 106% | Sensitivity index Stomach/Co [1, 4]: 1.07 | Sensitivity index Stomach/Co ([1]; ratio Stomach-BW / Colon-BW): 1.07 | Colon-BW, compared to 1559 in % [2, 3]: 99% | SI-BW, compared to 1559 in % [2, 3]: 94% | Sensitivity index Si/Colon [2, 3]: 0.95 | Colon-BW, compared to 1559 in % [2, 5]: 99% | SI-BW, compared to 1559 in % [2, 6]: 94%

H-HGEGSFSDELETILEELAAEDFIEWLIETKITDKKKKKK-NH2 [ZP2378]
Sto-BW, compared to 1559 in % [1, 3]: 94% | Sensitivity index Stomach/Co [1, 4]: 0.97 | Colon-BW, compared to 1559 in % [2, 3]: 97% | Organ selectivity (FIG. 8, unselective compounds) [2, 3]: unselective for the small intestine, colon or stomach | SI-BW, compared to 1559 in % [2, 3]: 91% | Sensitivity index Si/Colon [2, 3]: 0.94

H-HGEGSFSDELATI LEALAASDFIAWLIATKITDKKKKKK-NH2 [ZP2423]
Sto-BW, compared to 1559 in % [1, 3]: 94% | Sensitivity index Stomach/Co [1, 4]: 0.86 | Sensitivity index Stomach/Co ([1]; ratio Stomach-BW / Colon-BW): 0.86 | Colon-BW, compared to 1559 in % [2, 3]: 109% | Preferential stimulation of epithelial growth in the small intestine (summary) [2, 3]: preferentially stimulating epithelial growth in the small intestine | SI-BW, compared to 1559 in % [2, 3]: 123% | Selectivity for small intestinal mass relative to colon mass (FIG. 6) [2, 3]: selectively increase small intestinal mass, relative to colon mass | Sensitivity index Si/Colon [2, 3]: 1.13 | Colon-BW, compared to 1559 in % [2, 5]: 109% | SI-BW, compared to 1559 in % [2, 6]: 123%

H-HGEGSFSDELATILEALAAADFIAWLIATKITDKKKKKK-NH2 [ZP2402]
Sto-BW, compared to 1559 in % [1, 3]: 102% | Sensitivity index Stomach/Co [1, 4]: 0.90 | Colon-BW, compared to 1559 in % [2, 3]: 113% | Organ selectivity (FIG. 8, unselective compounds) [2, 3]: unselective for the small intestine, colon or stomach | SI-BW, compared to 1559 in % [2, 3]: 110% | Sensitivity index Si/Colon [2, 3]: 0.97

H-HGEGSFSDELATILEALAAADFISWLIATKITDKKKKKK-NH2 [ZP2411]
Sto-BW, compared to 1559 in % [1, 3]: 106% | Sensitivity index Stomach/Co [1, 4]: 0.95 | Sensitivity index Stomach/Co ([1]; ratio Stomach-BW / Colon-BW): 0.95 | Colon-BW, compared to 1559 in % [2, 3]: 111% | Preferential stimulation of epithelial growth in the small intestine (summary) [2, 3]: preferentially stimulating epithelial growth in the small intestine | SI-BW, compared to 1559 in % [2, 3]: 117% | Selectivity for small intestinal mass relative to colon mass (FIG. 6) [2, 3]: selectively increase small intestinal mass, relative to colon mass | Sensitivity index Si/Colon [2, 3]: 1.05 | Colon-BW, compared to 1559 in % [2, 5]: 111% | SI-BW, compared to 1559 in % [2, 6]: 117%

H-HGEGSFSDELATILEALAASDFISWLISTKITDKKKKKK-NH2 [ZP2381]
Sto-BW, compared to 1559 in % [1, 3]: 92% | Sensitivity index Stomach/Co [1, 4]: 0.88 | Sensitivity index Stomach/Co ([1]; ratio Stomach-BW / Colon-BW): 0.88 | Colon-BW, compared to 1559 in % [2, 3]: 104% | Preferential stimulation of epithelial growth in the small intestine (summary) [2, 3]: preferentially stimulating epithelial growth in the small intestine | SI-BW, compared to 1559 in % [2, 3]: 123% | Selectivity for small intestinal mass relative to colon mass (FIG. 6) [2, 3]: selectively increase small intestinal mass, relative to colon mass | Sensitivity index Si/Colon [2, 3]: 1.18 | Colon-BW, compared to 1559 in % [2, 5]: 104% | SI-BW, compared to 1559 in % [2, 6]: 123%

H-HGEGSFSDELNTILESLAASDFISWLISTKITDKKKKKK-NH2 [ZP2382]
Sto-BW, compared to 1559 in % [1, 3]: 101% | Sensitivity index Stomach/Co [1, 4]: 0.95 | Colon-BW, compared to 1559 in % [2, 3]: 106% | Organ selectivity (FIG. 8, unselective compounds) [2, 3]: unselective for the small intestine, colon or stomach | SI-BW, compared to 1559 in % [2, 3]: 103% | Sensitivity index Si/Colon [2, 3]: 0.97

H-HGEGSFSDELKTILEKLAAKDFIKWLIKTKITDKKKKKK-NH2 [ZP2395]
Preferential stimulation of epithelial growth in the stomach (summary) [1, 3]: preferentially stimulating epithelial growth in the stomach | Selectivity for stomach mass relative to colon mass (FIG. 7) [1, 3]: selectively increase stomach mass, relative to colon mass | Sto-BW, compared to 1559 in % [1, 3]: 113% | Sensitivity index Stomach/Co [1, 4]: 1.16 | Sensitivity index Stomach/Co ([1]; ratio Stomach-BW / Colon-BW): 1.16 | Colon-BW, compared to 1559 in % [2, 3]: 97% | SI-BW, compared to 1559 in % [2, 3]: 98% | Sensitivity index Si/Colon [2, 3]: 1.01 | Colon-BW, compared to 1559 in % [2, 5]: 97% | SI-BW, compared to 1559 in % [2, 6]: 98%

H-HGEGSFSDELSTILESLAASDFISWLISTKITDKKKKKK-NH2 [ZP2380]
Sto-BW, compared to 1559 in % [1, 3]: 98% | Sensitivity index Stomach/Co [1, 4]: 0.96 | Sensitivity index Stomach/Co ([1]; ratio Stomach-BW / Colon-BW): 0.96 | Colon-BW, compared to 1559 in % [2, 3]: 102% | Preferential stimulation of epithelial growth in the small intestine (summary) [2, 3]: preferentially stimulating epithelial growth in the small intestine | SI-BW, compared to 1559 in % [2, 3]: 108% | Selectivity for small intestinal mass relative to colon mass (FIG. 6) [2, 3]: selectively increase small intestinal mass, relative to colon mass | Sensitivity index Si/Colon [2, 3]: 1.06 | Colon-BW, compared to 1559 in % [2, 5]: 102% | SI-BW, compared to 1559 in % [2, 6]: 108%
